Data set [1] concerns A2780S cells. Put plainly: Inhibition of tumor cell proliferation in vitro, 72 hour treatment. The data set is classed as cell-based. To be noted: Homo sapiens.
Data set [2] deals with A2780 ovarian carcinoma cells. Put plainly: Clonogenic growth assay and drug combination studies. The conditions noted are these: clonogenic assays, single agent. Format: cell-based, human.
For data set [3], the system named is A2780S cells. Put plainly: Cell cycle analysis by flow cytometry. Format: cell-based, human. The conditions noted are these: 170 nM. As to the method:
Log phase A2780s cells were plated overnight in 6 well plates. […] Cells were harvested by trypsinization followed by centrifugation. Cell pellets were then resuspended by vortexing in 1 ml 80% methanol and fixed overnight at −20° C. Cells were recovered by centrifugation and washed two times with 1 ml of PBS. Cells were resuspended in 1 ml PBS, 2% FBS, 0.25% Triton X-100 and incubated at 4° C. for 10 minutes. Cells were again recovered by centrifugation and resuspended in 50 μl PBS, 2% FBS, 0.1% Triton X-100. Anti-Phospho-Threonine Proline antibody (IgM, New England Biolabs #9391S) was added and the cells were incubated for 30 minutes at 4° C. Cells were washed with PBS, 2% FBS, 0.1% Triton X-100 and resuspended in 50 μl PBS, 2% FBS, 0.1% Triton X-100. FITC-anti-Mouse antibody (Pharmingen #12064D) was added and incubated for 30 minutes at 4° C. in the dark. Cells were washed with PBS, 2% FBS, 0.1% Triton X-100 and resuspended in Propidium Iodide/RNase in PBS (10 μg/ml PI, 100 μg/ml RNase (DNase free)) and incubated at 37° C. for 30 minutes in the dark. Samples were analyzed using a flow cytometer.

Data set [4] deals with PARP cleavage in A2780S cells. Put plainly: PARP cleavage by western blot. Format: cell-based, human. The conditions noted are these: 24 hour time point. As to the method:
FIG. 3. […]. Protein extracts were then examined by western blot using an anti-PARP antibody (Clonetech). The arrow signifies caspase cleaved PARP protein fragment.
Compound treated A2780S cells were harvested at approximately 70% confluence and total protein was prepared by lysing the cells in RIPA [50 mM Tris (pH8), 150 mM NaCl, 1% NP-40, 0.5% Na-deoxycolate, 0.1% SDS, 0.1% Na3VO4, 0.1 mM NaF, 10 mM β-glycerophosphate, plus Complete® protease inhibitors (Boehringer Mannhiem)] buffer. Cell pellets were resuspended at a density of<2×10^7 cells/ml and incubated for 20 minutes on ice followed by a high speed 14,000 rpm centrifugation. The protein supernatant was then removed from the debris and protein content was quantitated using the Micro-BCA assay (Pierce). Treated extracts (25 microgram/lane) were then separated using a 10% SDS-polyacrylamide gel (10.5×14 cm). Proteins were then transferred from the gel to PVDF-membrane (Millipore) by exposure to […] in a semi-dry blotting apparatus (Hoeffer). PVDF protein blots were then blocked with 5% non-fat milk in TTBS (0.1% Tween 20 in Tris-buffered saline). […]. The blots were then washed three times with TTBS and developed with ECL-plus western blotting detection system (Amersham).
(In western blotting, separated proteins are transferred to a membrane and probed.)

A further data set can be described thus: in vivo. The conditions noted are these: Balb/c nu/nu nude, mouse, in vivo. The procedure: (§1) In vivo Antitumor Testing
(§2) Paclitaxel was dissolved in a 50/50 mixture of ethanol and Cremophor® and stored at 4° C.; final dilution of paclitaxel was obtained immediately before drug administration with NaCl 0.9%. 5-FU was dissolved in normal saline (NaCl 0.9%). […] The volume of all compounds injected was 0.01 ml/g of mouse weight.
(§3) Solid Tumor Xenografts in Nude Mice.
(§4) All solid tumors were maintained in Balb/c nu/nu nude mice. Tumors were propagated as subcutaneous transplants using tumor fragments obtained from donor mice. All tumor implants for efficacy testing were subcutaneous (sc).
(§5) The required number of animals needed to detect a meaningful response were grouped at the start of the experiment and each was given a subcutaneous implant of a tumor fragment (˜50 mg) with a 13-gauge trocar. For treatment of early-stage tumors, the animals were again grouped before distribution to the various treatment and control groups. For treatment of animals with advanced-stage disease, tumors were allowed to grow to the pre-determined size window (animals with tumors outside the range were excluded) and animals were evenly distributed to various treatment and control groups. Treatment of each animal was based on individual body weight. Treated animals were checked daily for treatment related toxicity/mortality. Each group of animals was weighed before the initiation of treatment (Wt1) and then again following the last treatment dose (Wt2). The difference in body weight (Wt2-Wt1) provides a measure of treatment-related toxicity.
(§6) Tumor response was determined by measurement of tumors with a caliper twice a week, until the tumors reach a predetermined “target” size of 1 g. Tumor weights (mg) were estimated from the Formula: […]
(§7) Antitumor activity was evaluated at the maximum tolerated dose (MTD) which is defined as the dose level immediately […] which excessive toxicity (i.e. more than one death) occurred. […] When death occured, the day of death was recorded.
(§8) Tumor response end-point was expressed in terms of tumor growth delay (T-C value), defined as the difference in time (days) required for the treated tumors (T) to reach a predetermined target size compared to those of the control group ®.
(§9) To estimate tumor cell kill, the tumor volume doubling time (TVDT) was first calculated with the Formula:
(§10) TVDT=Median time (days) for control tumors to reach target size−Median time (days) for control tumors to reach half the target size

In data set [5] the test system is Colo205 human colon carcinoma. Put plainly: Colo205 xenograft in nude mice. The conditions noted are these: for tumor regression: at MTD; for antitumor activity (in words): head-to-head at MTD. As to the method: as §1, §2, §3, §4, §5, §6, §7, §8, §9, §10
The test system of data set [6] is A2780 human ovarian carcinoma. Put plainly: A2780 xenograft in nude mice. The data set is classed as in vivo.
Data set [7] has as its system P388 mouse leukemia, Cyclin E transgenic mouse breast carcinoma, A2780, Colo205 and A431 tumor models. Put plainly: Multiple murine and human tumor models in vivo. Set-up: species or system mice. The text has this: The following tumors were used: A2780 human ovarian carcinoma, Br-cycE murine breast carcinoma, A431 human squamous cell carcinoma and Colo 205 colorectal carcinoma.
Compound 1 was compared head to head with flavopiridol in each of these models.

Molecules are shown by their SMILES.

One may read the IC90 as the concentration needed for an effect of 90%. A higher IC90 goes with a need for much substance.

As for `CC(C)(C)c1cnc(CSc2cnc(NC(=O)C3CCNCC3)s2)o1` [Compound 1, N-[5-[[[5-(1,1-Dimethylethyl)-2-oxazolyl]methyl]thio]-2-thiazolyl]-4-piperidinecarboxamide], the 90% effect level with A2780S cells [1] (IC90) was put at 170 nM. Besides, the “drug exposure sufficient to elicit a maximal anti-proliferative response” value in data set [2] turned out to be 8 h. For the same compound, in the data set on A2780S cells [3] (8 hr. exposure), the “% Apo (sub-G1 cells by DNA staining)” value is 6%, the “% G1” value was determined as 56%, the “% G2” value was 22% and the “% M” value is on record as 1%. For the same compound, the “% S” value with A2780S cells [3] (8 hr. exposure) stood at 15%. In addition, in the data set on A2780S cells [3] (24 hr. exposure), the “% Apo (sub-G1 cells by DNA staining)” value is 32 ± 12%, the “% G1” value came to 45%, the “% G2” value turned out to be 9.7% and the “% M” value is 0.3%. Further, in the data set with A2780S cells [3] (24 hr. exposure), the “% S” value is given as 8%. In data set [4], the “PARP cleavage (caspase activation)” value is listed as “Extensive cleavage”. This compound came in with an MTD at 8 days in “in vivo” (ip) of 36 mg/kg. Also, the “log cell kill (LCK)” value in data set [5] (MTD of 36 mg/kg, IP, QD×8) is over 2.0 LCK. Besides, in data set [5], the tumor regression entry is “tumor regression” and the “antitumor activity (in words)” value was “marked antitumor activity”. The “schedule dependence of activity” value in data set [6] (IP) is on record as “qdx8=qdx14>>>q2dx5=q4dx3”. The efficacy entry in data set [6] (dosed IP, qdx8 schedule, multiple dose levels) was “curative efficacy”. Moreover, the efficacy result in data set [6] (dosed orally, qdx8 schedule) is reported as “modest efficacy”. The efficacy result in data set [6] (single 24 hour continuous infusion at the MTD) is recorded as “curative efficacy”. In addition, the “anti-tumor activity in vivo” value in data set [7] is given as “broad spectrum anti-tumor activity”.

For the compound `O=c1[nH]cc(F)c(=O)[nH]1` [Compound 5-FU, 5-fluorouracil, reference compound], in data set [5], the tumor regression result is given as “failed to achieve tumor regression” and the “antitumor activity (in words)” value is “considerably less active”.

The compound `CC(=O)O[C@H]1C(=O)[C@@]2(C)[C@H]([C@H](OC(=O)c3ccccc3)[C@]3(O)C[C@H](OC(=O)[C@H](O)[C@@H](NC(=O)c4ccccc4)c4ccccc4)C(C)=C1C3(C)C)[C@]1(OC(C)=O)CO[C@@H]1C[C@@H]2O` [Paclitaxel, paclitaxel, reference compound] came in with an MTD in “in vivo” (iv) of 36 mg/kg. Further, the “antitumor activity (in words)” value in data set [5] is on record as “comparable to Compound 1”.

The values above are taken from US20030114504A1, “Compositions and methods for the treatment of cancer” (priority 2001, published 2003).
